Results taken from patent publication US20120277161A1, “INHIBITION OF MULTIPLE CELL ACTIVATION PATHWAYS” (INTER-K PTY LIMITED, priority 2009, published 2012).
Each block holds one molecule with its values, some of them ahead of it.

Columns and labels:
Type in all cases: biochemical
c-SRC (h) = c-SRC (h) (Homo sapiens, UniProt P12931); assay: c-Src kinase activity assay (cell-free, 33P-ATP); conditions: peptide 50 μM, relative to control
Experimental: (§1) In a final reaction volume of 25 μL, c-SRC (h) (5-10 mU) is incubated with 8 mM MOPS pH 7.0, 0.2 mM EDTA, 250 μM KVEKIGEGTYGVVYK (SEQ ID No. 19) (Cdc2 peptide), 10 mM MgAcetate and [γ-33P-ATP] (specific activity approx. 500 cpm/pmol, concentration as required). The reaction is initiated by the addition of the MgATP mix. After incubation for 40 minutes at room temperature, the reaction is stopped by the addition of 5 μL of a 3% phosphoric acid solution. 10 μL of the reaction is then spotted onto a P30 filtermat and washed three times for 5 minutes in 75 mM phosphoric acid and once in methanol prior to drying and scintillation counting.

PKC beta II = PKC beta II (Homo sapiens, UniProt P05771); assay: PKC kinase activity assay; conditions: dendrimer conc. 1 μM; read-out: Percentage (%) kinase inhibition PKC beta II
Experimental: as §1, with “PKC kinase” for “μL, c-SRC”, “20” for “8”, “HEPES” for “MOPS”, “7.4, 0.03% Triton X-100, […], 0.1 mg/mL phosphatidylserine, 10 μg/mL diacylglycerol, 0.1 mg/mL histone H1 or 50” for “7.0, 0.2 mM EDTA, 250”, “of the peptide ERMRPRKRQGSVRRRV” for “KVEKIGEGTYGVVYK”, “20),” for “19) (Cdc2 peptide),”

PKC alpha = PKC alpha (Homo sapiens, UniProt P17252); assay: PKC kinase activity assay; conditions: dendrimer conc. 1 μM; read-out: Percentage (%) kinase inhibition PKC alpha
Experimental: as §1, with “PKC kinase” for “μL, c-SRC”, “20” for “8”, “HEPES” for “MOPS”, “7.4, 0.03% Triton X-100, […], 0.1 mg/mL phosphatidylserine, 10 μg/mL diacylglycerol, 0.1 mg/mL histone H1 or 50” for “7.0, 0.2 mM EDTA, 250”, “of the peptide ERMRPRKRQGSVRRRV” for “KVEKIGEGTYGVVYK”, “20),” for “19) (Cdc2 peptide),”

PKC beta I = PKC beta I (Homo sapiens, UniProt P05771); assay: PKC kinase activity assay; conditions: dendrimer conc. 1 μM; read-out: Percentage (%) kinase inhibition PKC beta I
Experimental: as §1, with “PKC kinase” for “μL, c-SRC”, “20” for “8”, “HEPES” for “MOPS”, “7.4, 0.03% Triton X-100, […], 0.1 mg/mL phosphatidylserine, 10 μg/mL diacylglycerol, 0.1 mg/mL histone H1 or 50” for “7.0, 0.2 mM EDTA, 250”, “of the peptide ERMRPRKRQGSVRRRV” for “KVEKIGEGTYGVVYK”, “20),” for “19) (Cdc2 peptide),”

PI3K beta = PI3K beta (Homo sapiens, UniProt P42338); assay: PI3K HTRF activity assay; conditions: dendrimer conc. 1 μM; read-out: Percentage (%) kinase inhibition PI3K P110β
Experimental: (§2) In a final reaction volume of 20 μL, the test PI3K is incubated in assay buffer containing 10 μM phosphatidylinositol-4,5-bisphosphate and MgATP. The reaction is initiated by the addition of the MgATP mix. After incubation for 30 minutes at room temperature, the reaction is stopped by the addition of 5 μL of stop solution containing EDTA and biotinylated phosphatidylinositol-3,4,5-trisphosphate. Finally, 5 μL of detection buffer is added (containing europium-labelled anti-GST monoclonal antibody, GST-tagged GRP1 PH domain and streptavidin-allophycocyanin). The test plate is then read in time-resolved fluorescence mode and the homogenous time-resolved fluorescence (HTRF) signal is determined according to the formula HTRF=10000×(Em665 nm/Em620 nm).

PI3K P110δ = PI3K P110δ (Homo sapiens, UniProt O00329); assay: PI3K HTRF activity assay; conditions: dendrimer conc. 1 μM; read-out: Percentage (%) kinase inhibition PI3K P110δ
Experimental: as §2

c-RAF (h) = c-RAF (h) (Homo sapiens, UniProt P04049); assay: c-RAF kinase activity assay; conditions: dendrimer conc. 1 μM; read-out: Percentage (%) kinase inhibition c-RAF
Experimental: as §1, with “c-RAF” for “c-SRC”, “25” for “8”, “Tris” for “MOPS”, “7.5, 0.02” for “7.0, 0.2”, “EGTA, 0.66 mg/mL myelin basic protein,” for “EDTA, 250 μM KVEKIGEGTYGVVYK (SEQ ID No. 19) (Cdc2 peptide),”

PKB beta = PKB beta (Homo sapiens, UniProt P31751); assay: PKB kinase activity assay; conditions: dendrimer conc. 1 μM; read-out: Percentage (%) kinase inhibition PKB beta
Experimental: as §1, with “25 μL, PKB(h) (5-10 mU)” for “25 μL, c-SRC (h) (5-10 mU)”, “mM EDTA, 30 μM GRPRTSSFAEGKK” for “mM EDTA, 250 μM KVEKIGEGTYGVVYK”, “30 μM GRPRTSSFAEGKK (SEQ ID” for “250 μM KVEKIGEGTYGVVYK (SEQ ID”, “ID No. 26), 10 mM” for “ID No. 19) (Cdc2 peptide), 10 mM”, “the reaction mixture is then” for “the reaction is then”

PKB gamma = PKB gamma (Homo sapiens, UniProt Q9Y243); assay: PKB kinase activity assay; conditions: dendrimer conc. 1 μM; read-out: Percentage (%) kinase inhibition PKB gamma
Experimental: as §1, with “25 μL, PKB(h) (5-10 mU)” for “25 μL, c-SRC (h) (5-10 mU)”, “mM EDTA, 30 μM GRPRTSSFAEGKK” for “mM EDTA, 250 μM KVEKIGEGTYGVVYK”, “30 μM GRPRTSSFAEGKK (SEQ ID” for “250 μM KVEKIGEGTYGVVYK (SEQ ID”, “ID No. 26), 10 mM” for “ID No. 19) (Cdc2 peptide), 10 mM”, “the reaction mixture is then” for “the reaction is then”

MEK1 (h) = MEK1 (h) (Homo sapiens, UniProt Q02750); assay: MEK1 kinase activity assay; conditions: dendrimer conc. 1 μM; read-out: Percentage (%) kinase inhibition MEK1
Experimental: The reaction is initiated by the addition of the MgATP. After incubation for 40 minutes at room temperature, 5 μL of this incubation mix is used to initiate an ERK2 (m) assay.

PKC beta I, sequence (P05771 whole entry): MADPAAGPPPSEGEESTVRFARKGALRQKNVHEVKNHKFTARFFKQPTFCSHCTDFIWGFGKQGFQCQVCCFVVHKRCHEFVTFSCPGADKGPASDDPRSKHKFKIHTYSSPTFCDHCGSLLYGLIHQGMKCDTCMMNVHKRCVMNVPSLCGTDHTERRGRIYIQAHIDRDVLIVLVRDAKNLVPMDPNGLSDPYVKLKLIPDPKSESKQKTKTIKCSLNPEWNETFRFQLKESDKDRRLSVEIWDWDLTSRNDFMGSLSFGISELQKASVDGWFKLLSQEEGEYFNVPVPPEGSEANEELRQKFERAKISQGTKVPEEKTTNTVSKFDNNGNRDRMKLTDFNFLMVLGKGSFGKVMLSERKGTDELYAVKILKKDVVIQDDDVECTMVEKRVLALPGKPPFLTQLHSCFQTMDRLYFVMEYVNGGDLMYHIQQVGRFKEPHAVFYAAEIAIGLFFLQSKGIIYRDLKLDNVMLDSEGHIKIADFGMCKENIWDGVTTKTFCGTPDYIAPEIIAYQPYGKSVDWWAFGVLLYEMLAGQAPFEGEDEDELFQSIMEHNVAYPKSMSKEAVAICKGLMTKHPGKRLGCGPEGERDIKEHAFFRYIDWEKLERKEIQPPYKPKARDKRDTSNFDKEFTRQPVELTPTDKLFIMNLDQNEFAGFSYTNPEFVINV
c-RAF (h), sequence (P04049 whole entry): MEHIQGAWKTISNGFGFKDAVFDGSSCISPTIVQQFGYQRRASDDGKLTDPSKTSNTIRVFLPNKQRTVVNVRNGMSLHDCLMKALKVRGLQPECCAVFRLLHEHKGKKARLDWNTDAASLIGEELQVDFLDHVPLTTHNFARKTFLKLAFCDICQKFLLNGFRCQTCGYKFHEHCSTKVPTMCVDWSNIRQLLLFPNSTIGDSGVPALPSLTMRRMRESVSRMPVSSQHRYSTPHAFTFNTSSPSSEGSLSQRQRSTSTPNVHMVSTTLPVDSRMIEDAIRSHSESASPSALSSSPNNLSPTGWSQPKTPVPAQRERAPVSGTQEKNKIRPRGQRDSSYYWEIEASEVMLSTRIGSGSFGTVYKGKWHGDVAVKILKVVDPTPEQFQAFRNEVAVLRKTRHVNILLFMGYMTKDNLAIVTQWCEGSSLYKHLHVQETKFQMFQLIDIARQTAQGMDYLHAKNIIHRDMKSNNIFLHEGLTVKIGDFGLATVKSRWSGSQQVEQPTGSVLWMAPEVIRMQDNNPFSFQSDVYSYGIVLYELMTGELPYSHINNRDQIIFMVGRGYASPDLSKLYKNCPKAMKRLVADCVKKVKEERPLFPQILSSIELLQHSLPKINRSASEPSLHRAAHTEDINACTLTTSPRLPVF
PI3K beta, sequence (P42338 whole entry, species assumed, the tested form may be a part): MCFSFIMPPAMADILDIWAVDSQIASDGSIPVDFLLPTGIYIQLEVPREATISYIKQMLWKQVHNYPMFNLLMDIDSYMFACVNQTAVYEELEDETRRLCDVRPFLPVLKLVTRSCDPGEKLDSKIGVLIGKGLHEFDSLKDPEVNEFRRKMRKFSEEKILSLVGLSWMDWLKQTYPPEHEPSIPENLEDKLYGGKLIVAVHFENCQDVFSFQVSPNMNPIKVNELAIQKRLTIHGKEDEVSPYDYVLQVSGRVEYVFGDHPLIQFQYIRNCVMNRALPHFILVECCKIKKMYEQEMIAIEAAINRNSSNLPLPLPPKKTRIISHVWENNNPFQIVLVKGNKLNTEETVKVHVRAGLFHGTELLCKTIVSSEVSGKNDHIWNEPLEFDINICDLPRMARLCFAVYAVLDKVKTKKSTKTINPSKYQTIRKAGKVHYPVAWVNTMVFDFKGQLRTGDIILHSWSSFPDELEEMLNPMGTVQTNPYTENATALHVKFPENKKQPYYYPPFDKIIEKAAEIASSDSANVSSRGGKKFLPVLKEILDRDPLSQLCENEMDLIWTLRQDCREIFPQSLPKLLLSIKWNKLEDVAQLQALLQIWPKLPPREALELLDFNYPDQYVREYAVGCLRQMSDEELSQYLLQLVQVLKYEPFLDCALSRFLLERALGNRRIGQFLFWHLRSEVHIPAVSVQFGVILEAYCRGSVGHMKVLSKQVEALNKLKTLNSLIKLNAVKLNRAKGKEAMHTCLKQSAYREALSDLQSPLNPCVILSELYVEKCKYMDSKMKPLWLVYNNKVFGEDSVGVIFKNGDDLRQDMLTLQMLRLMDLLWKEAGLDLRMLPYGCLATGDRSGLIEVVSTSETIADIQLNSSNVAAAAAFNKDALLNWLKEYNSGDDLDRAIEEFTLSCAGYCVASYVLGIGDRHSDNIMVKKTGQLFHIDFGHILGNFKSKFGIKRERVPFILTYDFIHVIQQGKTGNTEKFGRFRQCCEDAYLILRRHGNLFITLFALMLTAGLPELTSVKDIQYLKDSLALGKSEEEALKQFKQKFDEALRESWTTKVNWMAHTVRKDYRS
PI3K beta, sequence (P27986 whole entry partner, species assumed, the tested form may be a part): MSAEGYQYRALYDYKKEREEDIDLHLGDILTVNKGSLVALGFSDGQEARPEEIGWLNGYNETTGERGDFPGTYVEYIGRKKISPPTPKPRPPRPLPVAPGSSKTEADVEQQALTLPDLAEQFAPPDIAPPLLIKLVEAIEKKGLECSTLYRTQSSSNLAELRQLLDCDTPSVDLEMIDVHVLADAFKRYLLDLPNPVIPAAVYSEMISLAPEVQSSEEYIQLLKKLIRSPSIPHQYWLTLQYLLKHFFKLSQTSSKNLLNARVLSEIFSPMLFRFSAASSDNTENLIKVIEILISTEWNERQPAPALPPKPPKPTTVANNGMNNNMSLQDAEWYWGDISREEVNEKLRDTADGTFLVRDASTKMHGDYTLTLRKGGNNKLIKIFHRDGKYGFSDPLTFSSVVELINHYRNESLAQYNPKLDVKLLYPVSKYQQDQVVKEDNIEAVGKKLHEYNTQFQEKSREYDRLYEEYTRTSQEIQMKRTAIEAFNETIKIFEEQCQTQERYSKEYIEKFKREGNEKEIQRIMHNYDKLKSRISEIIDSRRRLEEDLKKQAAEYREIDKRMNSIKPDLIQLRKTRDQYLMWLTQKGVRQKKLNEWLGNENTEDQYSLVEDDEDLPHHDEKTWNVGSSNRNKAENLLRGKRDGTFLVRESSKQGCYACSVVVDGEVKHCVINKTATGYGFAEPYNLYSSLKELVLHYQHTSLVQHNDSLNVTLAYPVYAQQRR
PKC beta II, sequence (P05771 1-673 isoform P05771-2): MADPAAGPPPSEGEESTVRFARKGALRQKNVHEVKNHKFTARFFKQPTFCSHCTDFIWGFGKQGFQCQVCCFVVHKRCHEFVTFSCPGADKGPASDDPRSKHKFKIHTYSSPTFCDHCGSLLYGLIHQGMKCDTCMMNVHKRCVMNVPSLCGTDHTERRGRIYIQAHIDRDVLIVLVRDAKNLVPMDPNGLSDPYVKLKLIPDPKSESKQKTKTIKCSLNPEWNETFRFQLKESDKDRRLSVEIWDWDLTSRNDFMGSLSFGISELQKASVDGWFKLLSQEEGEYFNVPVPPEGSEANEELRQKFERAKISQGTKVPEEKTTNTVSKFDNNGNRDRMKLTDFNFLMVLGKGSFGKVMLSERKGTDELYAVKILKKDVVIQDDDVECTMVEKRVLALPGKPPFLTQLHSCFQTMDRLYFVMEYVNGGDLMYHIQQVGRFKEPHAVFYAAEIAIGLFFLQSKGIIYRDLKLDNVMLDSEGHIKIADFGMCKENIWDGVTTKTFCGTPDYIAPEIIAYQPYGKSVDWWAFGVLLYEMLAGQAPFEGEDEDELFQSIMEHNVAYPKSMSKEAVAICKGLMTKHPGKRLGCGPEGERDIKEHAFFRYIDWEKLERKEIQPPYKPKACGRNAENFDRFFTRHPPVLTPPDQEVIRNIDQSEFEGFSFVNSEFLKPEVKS
PKB beta, sequence (P31751 whole entry): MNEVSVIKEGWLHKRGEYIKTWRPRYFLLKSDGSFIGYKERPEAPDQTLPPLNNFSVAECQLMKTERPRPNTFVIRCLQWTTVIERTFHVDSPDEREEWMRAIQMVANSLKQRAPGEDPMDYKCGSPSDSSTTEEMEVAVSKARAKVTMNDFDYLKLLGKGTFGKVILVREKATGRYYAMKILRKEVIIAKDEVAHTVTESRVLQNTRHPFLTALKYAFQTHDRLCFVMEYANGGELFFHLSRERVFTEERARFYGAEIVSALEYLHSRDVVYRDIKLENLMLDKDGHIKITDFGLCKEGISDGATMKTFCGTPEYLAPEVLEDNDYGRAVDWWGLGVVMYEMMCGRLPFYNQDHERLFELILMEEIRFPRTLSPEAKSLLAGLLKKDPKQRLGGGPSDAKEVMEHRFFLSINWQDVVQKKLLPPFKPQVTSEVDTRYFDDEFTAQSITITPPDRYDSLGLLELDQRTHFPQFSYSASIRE
MEK1 (h), sequence (Q02750 whole entry): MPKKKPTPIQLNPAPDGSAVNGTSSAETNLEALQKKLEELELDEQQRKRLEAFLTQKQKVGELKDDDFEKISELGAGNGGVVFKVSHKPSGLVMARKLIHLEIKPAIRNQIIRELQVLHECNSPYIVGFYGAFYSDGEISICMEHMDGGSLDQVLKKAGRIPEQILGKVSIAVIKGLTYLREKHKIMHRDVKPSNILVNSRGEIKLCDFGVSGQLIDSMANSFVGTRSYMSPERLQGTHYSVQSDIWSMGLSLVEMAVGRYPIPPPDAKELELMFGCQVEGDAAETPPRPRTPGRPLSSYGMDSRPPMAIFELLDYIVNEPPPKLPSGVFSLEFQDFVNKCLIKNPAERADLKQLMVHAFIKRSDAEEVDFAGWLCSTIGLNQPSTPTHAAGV

Molecule: RSKAK [Peptide 6]
% Inhibition of control, c-Src tyrosine kinase activity (c-SRC (h)): negligible or no c-Src inhibitory activity

Molecule: CC(C)C[C@@H](NC(=O)[C@H]1CCCN1C(=O)[C@@H](CC(N)=O)NC(=O)[C@@H](CCCNC(=N)N)NC(=O)[C@@H](C)NC(=O)[C@@H](CCCNC(=N)N)NC(=O)[C@@H](CO)NC(=O)[C@H](N)CCCNC(=N)N)C(=O)N[C@H](Cc1ccc(O)cc1)C(=O)N[C@H](CCCNC(=N)N)C(=O)NCCCC[C@H](NC(=O)[C@H](CCCCNC(=O)[C@H](CCCCNC(=O)[C@@H](CCCNC(=N)N)NC(=O)[C@@H](Cc1ccc(O)cc1)NC(=O)[C@@H](CC(C)C)NC(=O)[C@H]1CCCN1C(=O)[C@@H](CC(N)=O)NC(=O)[C@@H](CCCNC(=N)N)NC(=O)[C@@H](C)NC(=O)[C@@H](CCCNC(=N)N)NC(=O)[C@@H](CO)NC(=O)[C@H](N)CCCNC(=N)N)NC(=O)[C@@H](CCCNC(=N)N)NC(=O)[C@@H](Cc1ccc(O)cc1)NC(=O)[C@@H](CC(C)C)NC(=O)[C@H]1CCCN1C(=O)[C@@H](CC(N)=O)NC(=O)[C@@H](CCCNC(=N)N)NC(=O)[C@@H](C)NC(=O)[C@@H](CCCNC(=N)N)NC(=O)[C@@H](CO)NC(=O)[C@H](N)CCCNC(=N)N)NC(=O)[C@H](CCCCNC(=O)[C@@H](CCCNC(=N)N)NC(=O)[C@@H](Cc1ccc(O)cc1)NC(=O)[C@@H](CC(C)C)NC(=O)[C@H]1CCCN1C(=O)[C@@H](CC(N)=O)NC(=O)[C@@H](CCCNC(=N)N)NC(=O)[C@@H](C)NC(=O)[C@@H](CCCNC(=N)N)NC(=O)[C@@H](CO)NC(=O)[C@H](N)CCCNC(=N)N)NC(=O)[C@@H](CCCNC(=N)N)NC(=O)[C@@H](Cc1ccc(O)cc1)NC(=O)[C@@H](CC(C)C)NC(=O)[C@H]1CCCN1C(=O)[C@@H](CC(N)=O)NC(=O)[C@@H](CCCNC(=N)N)NC(=O)[C@@H](C)NC(=O)[C@@H](CCCNC(=N)N)NC(=O)[C@@H](CO)NC(=O)[C@H](N)CCCNC(=N)N)C(=O)NCCCC[C@H](NC(=O)[C@H](CCCCNC(=O)[C@@H](CCCNC(=N)N)NC(=O)[C@@H](Cc1ccc(O)cc1)NC(=O)[C@@H](CC(C)C)NC(=O)[C@H]1CCCN1C(=O)[C@@H](CC(N)=O)NC(=O)[C@@H](CCCNC(=N)N)NC(=O)[C@@H](C)NC(=O)[C@@H](CCCNC(=N)N)NC(=O)[C@@H](CO)NC(=O)[C@H](N)CCCNC(=N)N)NC(=O)[C@H](CCCCNC(=O)[C@H](CCCCNC(=O)[C@@H](CCCNC(=N)N)NC(=O)[C@@H](Cc1ccc(O)cc1)NC(=O)[C@@H](CC(C)C)NC(=O)[C@H]1CCCN1C(=O)[C@@H](CC(N)=O)NC(=O)[C@@H](CCCNC(=N)N)NC(=O)[C@@H](C)NC(=O)[C@@H](CCCNC(=N)N)NC(=O)[C@@H](CO)NC(=O)[C@H](N)CCCNC(=N)N)NC(=O)[C@@H](CCCNC(=N)N)NC(=O)[C@@H](Cc1ccc(O)cc1)NC(=O)[C@@H](CC(C)C)NC(=O)[C@H]1CCCN1C(=O)[C@@H](CC(N)=O)NC(=O)[C@@H](CCCNC(=N)N)NC(=O)[C@@H](C)NC(=O)[C@@H](CCCNC(=N)N)NC(=O)[C@@H](CO)NC(=O)[C@H](N)CCCNC(=N)N)NC(=O)[C@H](CCCCNC(=O)[C@@H](CCCNC(=N)N)NC(=O)[C@@H](Cc1ccc(O)cc1)NC(=O)[C@@H](CC(C)C)NC(=O)[C@H]1CCCN1C(=O)[C@@H](CC(N)=O)NC(=O)[C@@H](CCCNC(=N)N)NC(=O)[C@@H](C)NC(=O)[C@@H](CCCNC(=N)N)NC(=O)[C@@H](CO)NC(=O)[C@H](N)CCCNC(=N)N)NC(=O)[C@@H](CCCNC(=N)N)NC(=O)[C@@H](Cc1ccc(O)cc1)NC(=O)[C@@H](CC(C)C)NC(=O)[C@H]1CCCN1C(=O)[C@@H](CC(N)=O)NC(=O)[C@@H](CCCNC(=N)N)NC(=O)[C@@H](C)NC(=O)[C@@H](CCCNC(=N)N)NC(=O)[C@@H](CO)NC(=O)[C@H](N)CCCNC(=N)N)C(=O)NCCC(N)=O
inhibition at 1 µM (PKC beta II): 77%
inhibition at 1 µM (PKC alpha): 53%
inhibition at 1 µM (PKC beta I): 79%
inhibition at 1 µM (PI3K beta): 24%
inhibition at 1 µM (PI3K P110δ): 61%
inhibition at 1 µM (c-RAF (h)): 85%
inhibition at 1 µM (PKB beta): 87%
inhibition at 1 µM (PKB gamma): 97%
inhibition at 1 µM (MEK1 (h)): 95%

Molecule: NPLYR [Peptide 8]
% Inhibition of control, c-Src tyrosine kinase activity (c-SRC (h)): negligible or no c-Src inhibitory activity

% Inhibition of control, c-Src tyrosine kinase activity (c-SRC (h)): No inhibitory activity
Molecule: WQTGT [Peptide 7]
